Patent US8476320B2, “Formulations for parenteral administration of amino-substituted (E)-2, 6-dialkoxystyryl 4-substituted benzylsulfones” (Onconova Therapeutics, Inc, priority 2007, dated 2013)

Experiments:
[1] = Solubility of the Na salt
[2] = Accelerated stability in formulations containing PEG or PG and pH 10 buffer at 90° C. (HPLC); assay type: physicochemical; conditions: for % ON 01910.Na Remaining: 90° C.
Procedure: (§1) The effect of dielectric constant on the stabilization of ON 01910.Na, for example, was investigated, for example, by preparing formulations containing propylene glycol and PEG 400. The accelerated stability studies were preformed at 75 and 90° C. […] The following tables summarizes the results:
(§2) The samples were evaluated by an HPLC assay utilizing a Phenomenex Luna C-18, 5 micron (4.6 mm×250 mm) reverse phase column at ambient conditions. The mobile phase consisted of 60%-0.1% Trifluoroacetic Acid in water: 40% Acetonitrile. The flow rate was set to 2.0 ml/minute and the eluant was monitored at 230 nm

[3] = Accelerated stability of ON 01910.Na in formulations containing PEG at 75° C. (HPLC); assay type: physicochemical; conditions: for % ON 01910.Na Remaining: 75° C.
Procedure: as §1, §2

[4] = Infusion bag compatibility study; assay type: physicochemical; conditions: 75 mg/ml in PEG-400, bags containing 0.45% NaCl and 0.9% NaCl solutions
Procedure: This example summarizes the results of a compatibility study of ON 01910.Na drug product (75 mg/ml in PEG-400) in IV Infusion Bags and Sets containing 0.45% NaCl and 0.9% NaCl solutions. The study consisted of preparing solutions of 80 mg of the ON 01910.Na in 250 ml 0.9% NaCl, and 800 mg of ON01910.Na in 250 ml 0.45% NaCl, and storing them in IV infusion bags for over 24 hours to determine if there is any product loss or instability. The solutions were also passed through infusion sets at a rate of approximately 2 ml per minute for 120 minutes and monitored for product loss or instability.
The samples were analyzed by HPLC for Assay, % Recovery, and Impurities. Appearance, Osmolarity, and pH of the solutions were also monitored throughout the study. […]
Five ml of solution were removed from each bag for analysis at the following time points: T=0, 1 hr, 2 hr, 4 hr, 8 hr, and 24.5 hr. Appearance, Assay, % Impurities, % Recovery, Osmolarity, and pH were analyzed at each time points.
Results are shown in Tables 10-13. % Recovery is the percentage of drug substance as compared to the calculated amount, while % T0 is defined as the percentage of drug substance as compared to drug substance at the initial timepoint. […]

[5] = test system: patients with advanced solid tumors; assay: Phase I dose escalation study by 2-hour intravenous infusion; assay type: in vivo; conditions: iv 2 hour infusion, twice per week for 3 weeks, ten days off; no grade 2 or worse toxicities
Procedure: Safety and efficacy of this formulation, for example, is tested in a Phase I clinical study, at The Johns Hopkins Sidney Kimmel Cancer Center, Baltimore, Md., i.e., “Phase I Dose Escalation Study Of ON 01910.Na By 2-Hour Intravenous Infusion In Patients With Advanced Solid Tumors”. U.S. FDA IND #66,780. The objectives of this study include an identification of a maximum tolerated dose (MTD) and a recommended dose for further clinical studies. A further object of the study is to establish a safety profile, i.e., to observe any toxicities. The patients in this study have advanced solid tumors that have failed conventional treatments, or for which no approved therapy exists. An object of the study is particularly to observe efficacy (anti-cancer effects).
The patients are administered the preferred formulation described herein of the ON 01910.Na drug (properly diluted in intravenous solution) over a two hour period, twice per week, for three weeks. The patients are subsequently observed for […], to constitute a four week treatment cycle.
This study started with a single patient at the first starting dose level of 80 mg per patient. If there is no grade 2 or worse drug-related toxicity (side effects) observed in the first four week cycle, then another patient may be dosed at the next higher dose level. The first patient was dosed at 80 mg per patient on Aug. 3, 2004. […]

[6] = Long term stability of 75 mg/mL ON 01910.Na in 100% PEG-400 (HPLC); assay type: physicochemical; conditions: 100% PEG-400 for clinical use
Procedure: ON 01910.Na IV solution was manufactured at a concentration of 75 mg/mL in 100% PEG-400. The finished product consisted of 3 mL of drug product aseptically filled into
presterilized 5 mL vials. The manufacturing was in compliance with current Good Manufacturing Practices regulations.
Visual Inspection (a) The zero-time data point is the same as the release data generated from the manufactured clinical lot. Analytical Methods: (a) HPLC—Chromatography is performed using a Phenomenex Luna C-18 (2), 5 micron
(4.6 mm×250 mm, PN 00G-4252-E0) column at ambient conditions. The mobile phase used is 60%-0.1% trifluoroacetic acid in water; 40% acetonitrile. The flow rate is set at 2.0 ml/min Injection volume is 50 μL. Detection is accomplished by means of a UV/VIS detector at 230, 254, and 320 nm. Instrument control and data acquisition is facilitated using a Waters Millennium (V 2.15) software package. The external calibration is obtained using ON 01910.Na standard solutions prepared in 50:50 acetonitrile:water. This analytical method was validated.

COc1cc(OC)c(/C=C/S(=O)(=O)Cc2ccc(OC)c(NCC(=O)[O-])c2)c(OC)c1.[Na+] [ON 01910.Na, (E)-2,4,6-trimethoxystyryl-3-carboxymethylamino-4-methoxybenzylsulfone]
solubility [1]: very soluble | stability on adjusting the pH of the aqueous medium above 8 [2]: further improved | % ON 01910.Na Remaining ([2]; PEG:Buffer, After 72 hours): 94.22% | % ON 01910.Na Remaining ([2]; PEG:Buffer, Control): 100.00% | % ON 01910.Na Remaining ([2]; PEG:Water, After 72 hours): 22.28% | % ON 01910.Na Remaining ([2]; PEG:Water, Control): 100.00% | % ON 01910.Na Remaining ([2]; PG:Buffer, After 72 hours): 79.62% | % ON 01910.Na Remaining ([2]; PG:Buffer, Control): 100.00% | % ON 01910.Na Remaining ([2]; PG:Water, After 72 hours): 15.79% | % ON 01910.Na Remaining ([2]; PG:Water, Control): 100.00% | % ON 01910.Na Remaining ([2]; PH 10 buffer, After 72 hours): 50.18% | % ON 01910.Na Remaining ([2]; PH 10 buffer, Control): 100.00% | % ON 01910.Na Remaining ([2]; Water, After 72 hours): 5.36% | % ON 01910.Na Remaining ([2]; Water, Control): 100.00% | % ON 01910.Na Remaining ([3]; 0% PEG, 0 D): 100.00% | % ON 01910.Na Remaining ([3]; 0% PEG, 0.25 D): 86.47% | % ON 01910.Na Remaining ([3]; 0% PEG, 2 D): 11.20% | % ON 01910.Na Remaining ([3]; 0% PEG, 7 D): 0.47% | % ON 01910.Na Remaining ([3]; 0% PEG, 14 D): 0.47% | % ON 01910.Na Remaining ([3]; 0% PEG, 28 D): 0.02% | % ON 01910.Na Remaining ([3]; 25% PEG, 0 D): 100.00% | % ON 01910.Na Remaining ([3]; 25% PEG, 0.25 D): 98.12% | % ON 01910.Na Remaining ([3]; 25% PEG, 2 D): 66.89% | % ON 01910.Na Remaining ([3]; 25% PEG, 7 D): 42.13% | % ON 01910.Na Remaining ([3]; 25% PEG, 14 D): 32.03% | % ON 01910.Na Remaining ([3]; 25% PEG, 28 D): 29.80% | % ON 01910.Na Remaining ([3]; 50% PEG, 0 D): 100.00% | % ON 01910.Na Remaining ([3]; 50% PEG, 0.25 D): 100.32% | % ON 01910.Na Remaining ([3]; 50% PEG, 2 D): 94.76% | % ON 01910.Na Remaining ([3]; 50% PEG, 7 D): 86.06% | % ON 01910.Na Remaining ([3]; 50% PEG, 14 D): 75.80% | % ON 01910.Na Remaining ([3]; 50% PEG, 28 D): 68.73% | stability on addition of propylene glycol or PEG 400 to an aqueous formulation ([3]; accelerated studies at 75 and 90° C.): drastically improved | stability in IV infusion bags [4]: stable over 24 hours | dose that can be safely administered [5]: ≥ 2080 mg | expected degradation over a two year period [6]: not be any Significant Degradation | long term stability in the current formulation [6]: Extremely Stable
